Reference: patent US20050181385A1, “Synthetic lethal screen using RNA interference” (priority 2003, published 2005)
pIC50: −log10 of the molar value. “And” between values parts separate entries of the source, which are not always exact repeats. Identical values can stand only once.

Assays:
Type in all cases: cell-based, human
HeLa cells = assay: siRNA library screen for sensitization to Cisplatin (Alamar Blue growth)
Description: The primary screen with each agent was performed in HeLa cells, which are TP53 deficient. HeLa cells were transfected with siRNA pools, and the drugs were added 4 hrs later. […] The growth of cells +/−drug was assessed at 72 hrs post-transfection.
siRNA transfection was carried out as follows: one day prior to transfection, 50 microliters of a chosen cell line, e.g., cervical cancer HeLa cells (ATCC, Cat. No. CCL-2), grown in DMEM/10% fetal bovine serum (Invitrogen, Carlsbad, Calif.) to approximately 90% confluency were seeded in a 384-well tissue culture plate at 450 cells/well. For each transfection 20 microliters of OptiMEM (Invitrogen) was mixed with 2 microliter of siRNA (Dharmacon, Lafayette, Colo.) from a 10 micromolar stock. For each transfection, a ratio of 20 microliter of OptiMEM was mixed with 1 microliter of Oligofectamine reagent (Invitrogen) and incubated 5 minutes at room temperature. Then 20-microliter OptiMEM/Oligofectamine mixture was dispensed into each well of the 96 well plate with the OptiMEM/siRNA mixture, mixed and incubated 15-20 minutes at room temperature.
The internal environment of the proliferating cell is more reduced than that of non-proliferating cells.

TP53-negative A549 cells = assay: Alamar Blue cell growth, cisplatin after siRNA supertransfection, TP53-negative cells (FIG. 20)
Description: A549 cells stably transfected with empty vector (pRS, left panel) or an shRNA targeting TP53 (pRS-TP53, right panel) were supertransfected with siRNAs to luciferase, BRCA1, or BRCA2 prior to treatment with the DNA damaging agent, cisplatin. Cell growth was measured 72 hrs post-transfection using Alamar Blue.
The cell lines used in this example were HeLa cells, TP53-positive A549 cells and TP53-negative A549 cells. The matched pair of TP53 positive and negative cells were generated by stable transfection of short hairpin RNAs (shRNAs) targeting TP53 (monthly highlt highlight, November 2003). […]
After 4 hours, 100 microliter/well of DMEM/10% fetal bovine serum with or without DNA damage agents was added to each well to reach the final concentration of each agents as described above. […] Samples from the 6-well plates were analyzed for cell cycle profiles and samples from 96-well plates were analyzed for cell growth with Alamar Blue assay.
For Alamar Blue assay, the media from the 96-well plates was removed, and 100 uL/well complete media containing 10% (vol/vol) alamarBlue reagent (BioSource International, Inc) and 1/100th volume 1M Hepes buffer tissue culture reagent was added. The plates were then incubated 1-4 hours at 37° C. and fluorescence was measured by exciting at 544 nm and detecting emission at 590 nm with […]ax Gemini-Xs Spectrofluorometer (Molceular Devices). […]

TP53 mRNA [1] = assay: TP53 knockdown by TaqMan, pRS-p53 shRNA in HCT116 cells
Excerpt: In another specific embodiment, the invention provides a method for determining synthetic lethality between p53 and CHEK1. Stable clones having p53 gene silenced was generated. The pRS-TP53 1026 shRNA plasmid was deconvoluted from a library plasmid pool for TP53 by transforming bacteria with the pool and looking for clones containing only the plasmid of interest. The sequences used are as follows: pRS-p53 1026 19mer sequence: […] (SEQ ID NO:43); primers for sequence specific PCR: Forward: […] (SEQ ID NO:44), Reverse: […] (SEQ ID NO:45). Plasmids were identified by sequence specific PCR, and confirmed by sequencing. Stable p53-clones were generated by transfecting HCT116 cells using FuGENE 6 (Roche) with the pRS-TP53 1026 plasmid. Cells were split into 10 cm dishes plus 1 ug/ml puromycin 48 hours later, and maintained until colonies were evident (5-7 days). Clones were picked into a 96 well plate, maintained in 1 ug/ml puromycin, and tested for knockdown by TaqMan using the TP53 and hGUS Pre-Developed Assay Reagent (Applied Biosystems). To measure transient knockdown by the pRS-TP53 1026 plasmid, HCT116 cells were transfected using Lipofectamine 2000 (Invitrogen), and RNA harvested 24 hours later. TP53 transcript levels were assessed by TaqMan. […]

TP53 mRNA [2] = assay: TP53 mRNA silencing in A549 cells stably transfected with pRS-p53; details: stable A549 pRS-p53 cells versus pRS cells
Description: (§1) Next, supertransfection of the CHEK1 siRNA pool into cells stably expressing TP53 shRNAs was evaluated to determine if it could be used to investigate genetic interactions (SL) between these molecules. Matched cell lines +/−TP53 expression were generated by selecting stable clones of A549 lung cancer cell lines containing either empty pRS vector or pRS-p53. […] Both cell lines were then supertransfected with either control luciferase siRNA (luc, 100 nM) or the CHEK1 siRNA pool (100 nM total; 33 nM each of 3 siRNAs) and their cell cycle profiles examined with or without exposure to the DNA damaging agent, doxorubicin (Dox, FIG. 5). Cell cycle profiles of pRS-p53 cells were not appreciably different from those of pRS cells in the absence of Dox.
as §1, with “molecules. […]” for “molecules.”, “Cell cycle profiles of pRS-p53 cells were not appreciably different from those of pRS cells in the absence of Dox.” left out

CHEK1 and TP53 mRNA = assay: Competition between stable TP53 shRNA and CHEK1 siRNA pool, TaqMan (FIG. 4A); details: HCT116 clone A11, siRNA pool 100 nM, 24 hours
Description: A pool of three siRNAs targeting CHEK1 was transiently transfected into WT and pRS-p53 stably transfected HCT116 cells (clone A11). CHEK1 and TP53 mRNA levels were measured by Taqman analysis (left and right panels, respectively). […] STK6 and KNSL1 siRNAs were transiently co-transfected into WT SW480 cells and KNSL1 siRNAs were supertransfected into pRS-STK6 stably transfected SW480 cells. STK6 mRNA levels were measured by Taqman analysis. For the left set of bars, STK6 siRNA (10 nM) was used alone or together with one of three different individual KNSL1 siRNAs (10 nM each). […]
To test whether TP53 silencing in HCT116 clone A11 was subject to competition with siRNAs, cells of this clone were supertransfected with a pool of CHEK1-specific siRNAs. […] RNA was harvested 24 hours post transfection and knockdown was assessed by TaqMan analysis using the CHK1 or TP53 and hGUS Pre-Developed Assay Reagent (Applied Biosystems). […] This is in contrast to the observation that two different siRNAs targeting distinct mRNAs compete with each other when transfected together, effectively decreasing the efficacy of one or both of the siRNAs used. pRS and pRS-p53 HCT116 cells were transiently transfected with siRNA pools for ˜800 genes (see Example 3, infra) and measured effects on cellular growth by Alamar Blue assay. […]

[3] = cisplatin, HeLa cell growth, 72 hrs

Compound | EC25 (HeLa cells; 400 ng/ml stated to be an <EC25 concentration) [mg/L] | EC10 (HeLa cells; [3]) [mg/L] | EC50 (HeLa cells; [3]) [mg/L] | pIC50 (TP53-negative A549 cells; cells transfected with BRCA1 or BRCA2 siRNAs) | pIC50 (TP53-negative A549 cells; cells transfected with control siRNA (luciferase)) | TP53 mRNA silencing (TP53 mRNA [1]; stable clones A5 and A11) [%] | TP53 mRNA silencing (TP53 mRNA [1]; transient transfection, 24 hr post transfection) [%] | TP53 mRNA silencing (TP53 mRNA [2]) | competitive inhibition of silencing between TP53 shRNA and CHEK1 siRNA pool (CHEK1 and TP53 mRNA)
N.N.[Cl][Pt][Cl] [cisplatin, cis-Diaminedichloroplatinum] | > 0.4 | ~0.1 | ~0.4 | ~10.00 | ~9.00 |  |  |  | 
GACTCCAGTGGTAATCTAC [pRS-p53] |  |  |  |  |  | > 95 | ~80 | > 90% and ~90% | does not affect
